Test results from patent US7622551B2, “Leukocyte stimulating peptides” (POSCO, priority 2004, dated 2009).
Where no end group is shown, it is not given here.

Legend:
[1] = test system: differentiated HL60 cells; test: Arachidonic acid (AA) release in [3H]AA-labeled dHL60 cells; format: cell-based, human; conditions: for Inhibition of AA release induced by P14, P18, P21, P24 / AA release stimulating activity (in words): dHL60 cells; for Inhibition of AA release induced by P14, P18, P21, P24: 1 μM peptide, MAFP, AACOCF3, BEL at 10 μM; for Folds of increase (% of total), arachidonic acid release: differentiated HL60 cells, 10 μM of peptide; for AA release stimulating activity (in words): 10 μM
Method: (§1) U937 (human histiocytic lymphoma cells), HL60 (human promyelocytic leukemia cells), Raw 264.7 (mouse macrophage), Jurkat (human acute T cell leukemia), PC12 (rat adrenal pheochromocytoma cells), 3Y1 (Rat embryonic fibroblasts), 3T3L1 (preadipocytes), and NCI-H292 (human mucoepidermoid pulmonary carcinoma cells) were obtained from the American Type Culture Collection (Rockville, Md.) and maintained as recommended. FPR- or FPRL1 expressing RBL-2H3 cells were cultured as described previously (He et al. J. Immunol. 2000. 165: 4598-4605). Cells were maintained at about 1×10^6 cells/ml under standard incubator conditions (humidified atmosphere, 95% air, 5% CO2, at 37° C.). HL60 cells were induced to differentiate into the granulocyte phenotype by adding dimethylsulfoxide (DMSO) (final concentration 1.25%, v/v) for 4 days to the culture medium, as described previously (Itoh et al. Blood. 1998. 92: 1432-1441).
For the initial screening of the PS-SPCLs, we measured the AA release stimulating activity of each peptide pool. Cultured dHL60 cells (10^7 cells/ml) were pre-labeled with 0.5 μCi/ml of (^3H)-AA in RPMI 1640 medium containing 10% FBS for 90 min at 37° C. in a humidified incubator supplied with 95% air and 5% CO2, as described previously (Bae et al. J. Immunol. 2000. 164: 4089-4096). The labeled cells were then washed twice with serum-free RPMI 1640 and incubated in RPMI 1640 medium containing 0.1% fatty acid-free BSA for 15 min at 37° C. After discarding the medium, the cells were stimulated with various concentrations of peptide for the indicated times. Radioactivity in the medium and of collected cells was determined with a liquid scintillation counter. When investigating the effects of inhibitors, cells were preincubated with the indicated concentrations of each inhibitor or vehicle for 15 min prior to stimulation.

[2] = test system: differentiated HL60 cells; test: [Ca2+]i increase in fura-2 loaded dHL60 cells; format: cell-based, human; conditions: for [Ca^2+]i: differentiated HL60 cells, fura-2, 1 μM of peptide; for Concentration of maximal activity, [Ca^2+]i increase: data not shown
Method: as §1
(§2) The level of [Ca^2+]i was determined using Grynkiewicz's method using fura-2/AM (Grynkiewicz et al. J. Biol. Chem. 1985. 260: 3440-3550). Briefly, prepared cells were incubated with 3 μM of fura-2/AM at 37° C. for 50 min in serum-free RPMI 1640 medium under continuous stirring. 2×10^6 cells were aliquoted for each assay in Ca^2+ free Locke's solution (154 mM NaCl, 5.6 mM KCl, 1.2 mM MgCl2, 5 mM HEPES, pH 7.3, 10 mM glucose, and 0.2 mM EGTA). Fluorescence changes were measured at the dual excitation wavelength of 340 nm and 380 nm, and the calculated fluorescence ratio was translated into [Ca^2+]i.

[3] = test system: undifferentiated HL60 cells; test: [Ca2+]i increase in undifferentiated HL60 cells; format: cell-based, human; conditions: peptides 10 μM (FIG. 8)
Method: as §1, §2

human neutrophils = test: Superoxide generation (cytochrome c reduction) in human neutrophils; format: cell-based
Method: Peripheral blood leukocyte concentrates were donated by the Ulsan Red Cross Blood Center (Ulsan, Korea). PBMCs were separated on a Histopaque-1077 gradient. After two washings with HBSS without Ca^2+ and Mg^2+, the PBMCs were suspended in 10% FBS containing RPMI and incubated for 60 min at 37° C. to let the monocytes attach to the culture dish. Cells were washed 5 times with warmed RPMI medium to remove lymphocytes, and then the attached monocytes were collected, as described previously (Bae et al. J. Leukoc. Biol. 1999. 65: 241-248). Human neutrophils were isolated according to standard procedures; i.e., dextran sedimentation, hypotonic lysis of erythrocytes, and using a medium lymphocyte separation gradient, as described previously (Seo et al. J. Immunol. 1997. 158: 1895-1901). Isolated human leukocytes were then used promptly.
We determined superoxide anion generation by measuring cytochrome c reduction using a microtiter 96 well plate ELISA reader (Bio-Tekinstruments, EL312e, Winooski, Vt.) as described previously (Bae et al. Blood. 2001. 97: 2854-2862). Human neutrophils (1×10^6 cells/100 μl of RPMI 1640 medium per well of a 96-well plate) were preincubated with 50 μM of cytochrome c at 37° C. for 1 min and then incubated with the indicated peptide concentrations. Superoxide generation was determined from change in light absorption at 550 nm over 5 minutes at 1 min intervals.

human monocytes = test: Chemotaxis assay (modified Boyden chamber), monocytes; format: cell-based; conditions: FIG. 6B; control peptide at concentrations less than 10 μM
Method: FIGS. 6A and 6B show chemotactic effect of peptides. Assays were performed using a modified Boyden chamber assay, as described in the Examples. Isolated human neutrophils (A) or monocytes (B) (1×10^6 cells/ml in serum free RPMI) were added to the upper wells of a 96-well chemotaxis chamber and migration across a 3 μm pore size (5 μm for monocytes) polycarbonate membrane was assessed after 2 hrs incubation at 37° C. The numbers of migrated cells were determined by counting them in a high power field (400×). Results are presented as means±S.E. of three independent experiments each performed in duplicate.
Chemotaxis assays were performed using multiwell chambers (Neuroprobe Inc., Gaithersburg, Md.) (Bae et al. Blood. 2001. 97: 2854-2862). Briefly, prepared human monocytes were suspended in RPMI at a concentration of 1×10^6 cells/ml, and 25 μl of the suspension was then placed onto the upper well of a chamber separated by a 5 μm polyhydrocarbon filter (3 μm pores size not polyvinylpyrrolidone coated, as is needed for neutrophils) from peptides or N-formyl-methionyl-leucyl-phenylalanine (fMLF) in the lower well. After incubation for 2 hours (90 minutes for neutrophils) at 37° C., non-migrated cells were removed by scraping, and cells that migrated across the filter were dehydrated, fixed, and stained with hematoxylin (Sigma, St. Louis, Mo.). Stained cells were counted in five randomly chosen high power fields (HPF) (400×) (Bae et al. Blood. 2001. 97: 2854-2862).

Row | Molecule | [Ca^2+]i [2] [nM] | Folds of increase (% of total), arachidonic acid release [1] [folds] | AA release stimulating activity (in words) [1] | further results
1 | CCCCC/C=C\C/C=C\C/C=C\C/C=C\CCCC(=O)C(F)(F)F [AACOCF3, reference compound] |  |  |  | Inhibition of AA release induced by P14, P18, P21, P24 [1]: almost completely prevented
2 | Nc1ncnc2c1ncn2[C@@H]1O[C@H](COP(=O)(O)OP(=O)(O)OP(=O)(O)O)[C@@H](O)[C@H]1O [ATP, reference compound] |  |  |  | [Ca^2+]i increase (in words) ([2]; dHL60 cells, 500 μM of ATP (FIG. 4)): stimulated; Effect of PTX on agonist-induced [Ca^2+]i rise ([2]; dHL60 cells, PTX 150 ng/ml for 20 hr): not inhibited
3 | CC(=O)OCOC(=O)CN(CC(=O)OCOC(C)=O)c1ccccc1OCCOc1ccccc1N(CC(=O)OCOC(C)=O)CC(=O)OCOC(C)=O [BAPTA/AM, reference compound] |  |  |  | Inhibition of AA release induced by P14, P18, P21, P24 [1]: inhibited
4 | O=C1O/C(=C/Br)CCC1c1cccc2ccccc12 (stereo not shown) [BEL, reference compound] |  |  |  | Inhibition of AA release induced by P14, P18, P21, P24 [1]: did not interfere
5 | CSCC[C@H](NC=O)C(=O)N[C@@H](CC(C)C)C(=O)N[C@@H](Cc1ccccc1)C(=O)O [fMLF, N-formyl-methionyl-leucyl-phenylalanine, reference compound] |  |  |  | [Ca^2+]i increase in undifferentiated HL60 cells [3]: did not affect; Superoxide production (human neutrophils; 1 μM of peptide, cytochrome c reduction): 26.5 ± 1.32 nmole/10^6 cells
6 | CCCCC[C@H](O)/C=C/C=C\C=C\C=C\[C@@H](O)[C@@H](O)CCCC(=O)O [lipoxin A4, reference compound] |  |  |  | [Ca^2+]i increase in undifferentiated HL60 cells [3]: did not affect
7 | KKHHKM-NH2 [Peptide P1] | 0 | 1.25 ± 0.168 |  | [Ca^2+]i increase (in words) ([2]; dHL60 cells, 1 μM): did not affect
8 | KKHHVM-NH2 [Peptide P2] | 0 | 1.23 ± 0.153 |  | 
9 | KKHYKM-NH2 [Peptide P3] | 8 ± 3.2 | 1.45 ± 0.306 |  | 
10 | KKHYPM-NH2 [Peptide P4] | 14 ± 4.1 | 1.41 ± 0.247 |  | 
11 | KKHYVM-NH2 [Peptide P5] | 34 ± 9.5 | 1.68 ± 0.390 |  | 
12 | KKHYYM-NH2 [Peptide P6] | 50 ± 11.7 | 1.52 ± 0.296 |  | 
13 | KKYHKM-NH2 [Peptide P7] | 0 | 1.42 ± 0.226 |  | [Ca^2+]i increase (in words) ([2]; dHL60 cells, 1 μM): did not affect
14 | KKYHVM-NH2 [Peptide P8] | 31 ± 3.5 | 1.30 ± 0.170 |  | 
15 | KKYYKM-NH2 [Peptide P9] | 85 ± 15.8 | 1.49 ± 0.268 |  | 
16 | KKYYPM-NH2 [Peptide P10] | 152 ± 28.7 | 2.27 ± 0.199 | most potent | Concentration of maximal activity, [Ca^2+]i increase ([2]; dHL60 cells): approximately 3 μM
17 | KKYYVM-NH2 [Peptide P11] | 158 ± 25.3 | 2.49 ± 0.023 | most potent | Concentration of maximal activity, [Ca^2+]i increase ([2]; dHL60 cells): approximately 3 μM
18 | KKYYYM-NH2 [Peptide P12] | 153 ± 13.2 | 2.58 ± 0.168 | most potent | Concentration of maximal activity, [Ca^2+]i increase ([2]; dHL60 cells): approximately 3 μM
19 | MKYHKM-NH2 [Peptide P19] | 13 ± 3.0 | 1.68 ± 0.221 |  | 
20 | MKYHVM-NH2 [Peptide P20] | 155 ± 16.3 | 2.55 ± 0.271 | most potent | 
21 | MKYYPM-NH2 [Peptide P22] | 168 ± 21.6 | 2.95 ± 0.668 | most potent | Concentration of maximal activity, [Ca^2+]i increase ([2]; dHL60 cells): approximately 3 μM
22 | MKYYVM-NH2 [Peptide P23] | 153 ± 13.2 | 3.05 ± 0.401 | most potent | Concentration of maximal activity, [Ca^2+]i increase ([2]; dHL60 cells): approximately 3 μM
23 | RKYHKM-NH2 [Peptide P13] | 10 ± 4.2 | 1.47 ± 0.220 |  | 
24 | RKYYKM-NH2 [Peptide P15] | 77 ± 12.1 | 1.71 ± 0.214 |  | 
25 | RKYYPM-NH2 [Peptide P16] | 135 ± 21.4 | 2.57 ± 0.450 | most potent | Concentration of maximal activity, [Ca^2+]i increase ([2]; dHL60 cells): approximately 3 μM
26 | RKYYVM-NH2 [Peptide P17] | 143 ± 10.2 | 2.82 ± 0.210 | most potent | Cellular chemotaxis in human monocytes (in words) (human monocytes): induced cellular chemotaxis; Concentration of maximal activity, [Ca^2+]i increase ([2]; dHL60 cells): approximately 3 μM; Superoxide generation (in words) (human neutrophils): stimulate superoxide generation in a concentration-dependent manner
